The source of these data is ChEMBL document CHEMBL1909046, “DrugMatrix in vitro pharmacology data”.

By IC50 is commonly meant the midpoint of a concentration-inhibition curve. The Ki is a dissociation constant, usually derived from enzyme kinetics or from competition with a known ligand.

For assay [1], the target named is Platelet-activating factor receptor (Homo sapiens, UniProt P25105). Description: biochemical. The format is tissue-based. Note: in other assays of this panel Not Active means under 50% inhibition at 10 µM.
Sequence of Platelet-activating factor receptor (P25105 whole entry): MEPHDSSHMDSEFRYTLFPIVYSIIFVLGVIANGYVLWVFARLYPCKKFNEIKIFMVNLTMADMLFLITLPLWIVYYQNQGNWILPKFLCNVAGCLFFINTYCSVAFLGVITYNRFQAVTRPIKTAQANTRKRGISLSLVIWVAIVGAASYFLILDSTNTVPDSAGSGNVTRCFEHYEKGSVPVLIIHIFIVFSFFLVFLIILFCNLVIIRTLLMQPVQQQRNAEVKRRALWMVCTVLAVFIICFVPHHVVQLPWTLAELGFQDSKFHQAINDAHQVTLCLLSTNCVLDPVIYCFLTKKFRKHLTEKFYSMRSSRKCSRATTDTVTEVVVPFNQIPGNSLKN
Assay [2] deals with Beta-3 adrenergic receptor (Homo sapiens, UniProt P13945). Description: DRUGMATRIX: Adrenergic beta3 radioligand binding (ligand: [125I] Cyanopindolol). The format is cell membranes, HEK293, Membrane. The following applies: hek293; Not Active = under 50% inhibition at 10 µM.
Sequence of Beta-3 adrenergic receptor (P13945 whole entry): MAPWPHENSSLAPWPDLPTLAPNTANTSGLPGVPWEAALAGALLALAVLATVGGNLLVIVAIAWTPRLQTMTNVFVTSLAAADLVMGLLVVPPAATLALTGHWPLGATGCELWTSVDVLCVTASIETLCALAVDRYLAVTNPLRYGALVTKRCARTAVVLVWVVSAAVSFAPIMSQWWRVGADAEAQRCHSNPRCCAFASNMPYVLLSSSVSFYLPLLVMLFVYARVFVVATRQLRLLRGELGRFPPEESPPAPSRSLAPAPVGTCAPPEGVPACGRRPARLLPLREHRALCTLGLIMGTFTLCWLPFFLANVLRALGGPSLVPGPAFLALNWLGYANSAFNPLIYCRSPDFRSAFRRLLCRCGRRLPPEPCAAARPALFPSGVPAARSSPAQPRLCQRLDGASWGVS
In the next assay the target is T1, Neutrophil elastase (Homo sapiens, UniProt P08246).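 Note: inhibition of neutrophil elastase enzyme activity, measured with a p-nitroanilide-linked peptide substrate; in other assays of this panel Not Active means under 50% inhibition at 10 µM.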
T1 sequence (P08246 whole entry): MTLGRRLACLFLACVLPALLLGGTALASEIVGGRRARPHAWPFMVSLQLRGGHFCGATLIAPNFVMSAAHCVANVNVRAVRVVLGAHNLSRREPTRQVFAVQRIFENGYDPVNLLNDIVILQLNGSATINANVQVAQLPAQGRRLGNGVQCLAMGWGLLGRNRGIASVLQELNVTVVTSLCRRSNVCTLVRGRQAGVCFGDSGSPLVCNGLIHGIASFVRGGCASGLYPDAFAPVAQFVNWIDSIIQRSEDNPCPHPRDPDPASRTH
The format is tissue-based.

Assay [3] has as its target Beta-2 adrenergic receptor (Homo sapiens, UniProt P07550). Description: DRUGMATRIX: Adrenergic beta2 radioligand binding (ligand: [3H] CGP-12177). It counts as cell membranes, CHO, Membrane. To be noted: cho; Not Active = under 50% inhibition at 10 µM.
A short description of assay [4]: DRUGMATRIX: Phorbol Ester radioligand binding (ligand: [3H] PDBu). The format is cell membranes, Mus musculus, ICR, Brain, Membrane. The following applies: Not Active = under 50% inhibition at 10 µM.
Assay [5] in a line: DRUGMATRIX: ATPase, Na+/K+ enzyme inhibition (substrate: ATP). The format is tissue-based, Sus scrofa, Heart. To be noted: Not Active = under 50% inhibition at 10 µM.
In another assay the target is Cannabinoid receptor 1 (Homo sapiens, UniProt P21554). It counts as cell membranes, Membrane. To be noted: chem-1. Note: in other assays of this panel Not Active means under 50% inhibition at 10 µM.
Sequence of Cannabinoid receptor 1 (P21554 whole entry): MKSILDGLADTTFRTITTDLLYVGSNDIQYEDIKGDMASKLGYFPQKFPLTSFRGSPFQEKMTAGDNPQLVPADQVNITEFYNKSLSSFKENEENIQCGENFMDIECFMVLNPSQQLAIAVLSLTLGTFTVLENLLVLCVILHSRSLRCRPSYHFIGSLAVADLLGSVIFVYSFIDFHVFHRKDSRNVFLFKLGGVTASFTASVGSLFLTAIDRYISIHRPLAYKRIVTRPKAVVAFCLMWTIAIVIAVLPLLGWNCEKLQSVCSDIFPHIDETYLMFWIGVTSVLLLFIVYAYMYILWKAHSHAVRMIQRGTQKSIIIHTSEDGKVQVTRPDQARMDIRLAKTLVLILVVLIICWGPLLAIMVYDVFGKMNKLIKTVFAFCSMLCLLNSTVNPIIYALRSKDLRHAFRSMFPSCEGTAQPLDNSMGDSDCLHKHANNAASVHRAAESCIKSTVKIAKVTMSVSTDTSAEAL

Sequence of Beta-2 adrenergic receptor (P07550 whole entry): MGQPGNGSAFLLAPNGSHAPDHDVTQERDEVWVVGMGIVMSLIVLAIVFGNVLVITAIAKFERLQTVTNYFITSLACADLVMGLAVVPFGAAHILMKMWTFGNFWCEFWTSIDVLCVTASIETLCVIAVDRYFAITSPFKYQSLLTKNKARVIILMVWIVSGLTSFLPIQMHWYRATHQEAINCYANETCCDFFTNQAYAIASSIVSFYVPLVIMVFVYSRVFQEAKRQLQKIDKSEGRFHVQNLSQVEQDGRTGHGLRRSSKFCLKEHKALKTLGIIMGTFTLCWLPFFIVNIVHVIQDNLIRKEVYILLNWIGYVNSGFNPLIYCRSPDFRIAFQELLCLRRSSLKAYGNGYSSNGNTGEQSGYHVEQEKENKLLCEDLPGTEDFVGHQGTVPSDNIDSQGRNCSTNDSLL

In the case of `C[C@@H]1CC[C@H]2[C@@H](C)C(=O)O[C@@H]3O[C@@]4(C)CC[C@@H]1[C@]32OO4` [ARTEMISININ], the IC50 result (in assay [1] (platelet); in assay [2]; at Neutrophil elastase; in assay [3]; in assay [4]; in assay [5]) was “Not Active” each time. The IC50 result against Cannabinoid receptor 1 is listed as “Not Active”. Besides, the Ki result in assay [4] and in assay [5] was “Not Active” throughout.
For `CO[C@H]1[C@@H](O)[C@H](N)[C@@H](O[C@H]2O[C@H]([C@H](C)N)CC[C@H]2N)[C@H](O)[C@@H]1N(C)C(=O)CN` [ASTROMICIN], the IC50 result (in assay [1] (platelet); in assay [2]; against Neutrophil elastase; in assay [3]; in assay [4]; in assay [5]) was “Not Active” each time. Also, the IC50 result against Cannabinoid receptor 1 was “Not Active”. Further, the Ki entry in assay [4] and in assay [5] was “Not Active” throughout.
In the case of `[N-]=[N+]=CC(=O)OC[C@H](N)C(=O)O` [AZASERINE], the IC50 entry (in assay [1] (platelet); in assay [2]; against Neutrophil elastase; in assay [3]; in assay [4]; in assay [5]) was “Not Active” each time. Also, the IC50 result against Cannabinoid receptor 1 is “Not Active”. Also, the Ki result in assay [4] and in assay [5] was “Not Active” in each case.
For the compound `CC[C@H]1OC(=O)[C@H](C)[C@@H](O[C@H]2C[C@@](C)(OC)[C@@H](O)[C@H](C)O2)[C@H](C)[C@@H](O[C@@H]2O[C@H](C)C[C@H](N(C)C)[C@H]2O)[C@](C)(O)C[C@@H](C)CN(C)[C@H](C)[C@@H](O)[C@]1(C)O` [AZITHROMYCIN], the IC50 result (in assay [1] (platelet); in assay [2]; at Neutrophil elastase; in assay [3]; in assay [4]; in assay [5]) was “Not Active” throughout. The IC50 result at Cannabinoid receptor 1 was “Not Active”. The Ki entry in assay [4] and in assay [5] was “Not Active” in each case.
Consider `CC(C)(C)c1ccc(S(=O)(=O)/C=C/C#N)cc1` [BAY-11-7085], for which the IC50 result (in assay [1] (platelet); in assay [2]; against Neutrophil elastase; in assay [3]; in assay [4]; in assay [5]) was “Not Active” in each case. On Cannabinoid receptor 1, the IC50 entry is listed as “Not Active”. For the same compound, the Ki entry in assay [4] and in assay [5] was “Not Active” throughout.
`CCc1oc2ccccc2c1C(=O)c1cc(Br)c(O)c(Br)c1` [BENZBROMARONE]: the IC50 entry (in assay [1] (platelet); in assay [2]; against Neutrophil elastase; in assay [3]; in assay [4]; in assay [5]) was “Not Active” each time. Moreover, the IC50 entry on Cannabinoid receptor 1 is on record as “Not Active”. Moreover, the Ki entry in assay [4] and in assay [5] was “Not Active” in each case.
`O=c1cc(-c2ccccc2)oc2ccc3ccccc3c12` [BETA-NAPHTHOFLAVONE]: the IC50 result (in assay [1] (platelet); in assay [2]; at Neutrophil elastase; in assay [3]; in assay [4]; in assay [5]) was “Not Active” each time. The IC50 result against Cannabinoid receptor 1 is on record as “Not Active”. In addition, the Ki result in assay [4] and in assay [5] was “Not Active” throughout.
In the case of `CC(C)C[C@H]1C(=O)N2CCC[C@H]2[C@]2(O)O[C@](NC(=O)[C@@H]3C=C4c5cccc6[nH]c(Br)c(c56)C[C@H]4N(C)C3)(C(C)C)C(=O)N12` [BROMOCRIPTINE], the IC50 entry (in assay [1] (platelet); in assay [2]; against Neutrophil elastase; in assay [3]; in assay [4]; in assay [5]) was “Not Active” each time. Further, the half-maximal inhibitory concentration (IC50) entry against Cannabinoid receptor 1 is given as “Not Active”. In addition, the Ki entry in assay [4] and in assay [5] was “Not Active” throughout.
For the compound `CS(=O)(=O)OCCCCOS(C)(=O)=O` [BUSULFAN], the IC50 result (in assay [1] (platelet); in assay [2]; on Neutrophil elastase; in assay [3]; in assay [4]; in assay [5]) was “Not Active” each time. Besides, the IC50 result against Cannabinoid receptor 1 is “Not Active”. Further, the Ki result in assay [4] and in assay [5] was “Not Active” in each case.
Regarding `O=C(/C=C/c1ccc(O)c(O)c1)OCCc1ccccc1` [CAFFEIC ACID PHENETHYL ESTER], the IC50 entry (in assay [1] (platelet); in assay [2]; on Neutrophil elastase; in assay [3]; in assay [4]; in assay [5]) was “Not Active” each time. Also, the IC50 entry at Cannabinoid receptor 1 was “Not Active”. For the same compound, the Ki result in assay [4] and in assay [5] was “Not Active” in each case.
For `COc1cc(CNC(=O)CCCC/C=C/C(C)C)ccc1O` [CAPSAICIN], the IC50 entry (in assay [1] (platelet); in assay [2]; at Neutrophil elastase; in assay [3]; in assay [4]; in assay [5]) was “Not Active” each time. The IC50 entry at Cannabinoid receptor 1 was “Not Active”. Moreover, the Ki entry in assay [4] and in assay [5] was “Not Active” each time.
As for `NC(=O)N1c2ccccc2C=Cc2ccccc21` [CARBAMAZEPINE], the IC50 entry (in assay [1] (platelet); in assay [2]; on Neutrophil elastase; in assay [3]; in assay [4]; in assay [5]) was “Not Active” in each case. The IC50 result against Cannabinoid receptor 1 is “Not Active”. Besides, the Ki result in assay [4] and in assay [5] was “Not Active” in each case.
Consider `CCOC(=O)n1ccn(C)c1=S` [CARBIMAZOLE], for which the IC50 result (in assay [1] (platelet); in assay [2]; at Neutrophil elastase; in assay [3]; in assay [4]; in assay [5]) was “Not Active” in each case. The IC50 result on Cannabinoid receptor 1 was “Not Active”. Also, the Ki entry in assay [4] and in assay [5] was “Not Active” each time.
Consider `Oc1ccccc1O` [CATECHOL], for which the IC50 entry (in assay [1] (platelet); in assay [2]; on Neutrophil elastase; in assay [3]; in assay [4]; in assay [5]) was “Not Active” each time. Besides, the IC50 entry at Cannabinoid receptor 1 is “Not Active”. The Ki entry in assay [4] and in assay [5] was “Not Active” throughout.
For `CO[C@@]1(NC(=O)CSCC#N)C(=O)N2C(C(=O)O)=C(CSc3nnnn3C)CS[C@@H]21` [CEFMETAZOLE], the IC50 result (in assay [1] (platelet); in assay [2]; on Neutrophil elastase; in assay [3]; in assay [4]; in assay [5]) was “Not Active” in each case. Also, the IC50 result on Cannabinoid receptor 1 was “Not Active”. Besides, the Ki result in assay [4] and in assay [5] was “Not Active” each time.
`CN(C(=O)CCCOc1ccc2[nH]c(=O)ccc2c1)C1CCCCC1` [CILOSTAMIDE]: the IC50 is 3.69 µM in assay [1] (read-out: IC50); “Not Active” in assay [2]; “Not Active” against Neutrophil elastase; “Not Active” in assay [3]; “Not Active” in assay [4]; “Not Active” in assay [5]. The half-maximal inhibitory concentration (IC50) result on Cannabinoid receptor 1 is “Not Active”. The Ki in assay [1] (read-out: Ki) was 1.92 µM; in assay [4] it was “Not Active”; in assay [5] it was “Not Active”.
Regarding `CC(C)(Oc1ccc(C2CC2(Cl)Cl)cc1)C(=O)O` (stereo unspecified) [CIPROFIBRATE], the IC50 entry (in assay [1] (platelet); in assay [2]; on Neutrophil elastase; in assay [3]; in assay [4]; in assay [5]) was “Not Active” throughout. Besides, the IC50 result on Cannabinoid receptor 1 is listed as “Not Active”. In addition, the Ki result in assay [4] and in assay [5] was “Not Active” in each case.
For the compound `Nc1nc(Cl)nc2c1ncn2[C@H]1C[C@H](O)[C@@H](CO)O1` [CLADRIBINE], the IC50 entry (in assay [1] (platelet); in assay [2]; at Neutrophil elastase; in assay [3]; in assay [4]; in assay [5]) was “Not Active” throughout. For the same compound, the IC50 entry against Cannabinoid receptor 1 is “Not Active”. Moreover, the Ki entry in assay [4] and in assay [5] was “Not Active” throughout.
Consider `CC[C@H]1OC(=O)[C@H](C)[C@@H](O[C@H]2C[C@@](C)(OC)[C@@H](O)[C@H](C)O2)[C@H](C)[C@@H](O[C@@H]2O[C@H](C)C[C@H](N(C)C)[C@H]2O)[C@](C)(OC)C[C@@H](C)C(=O)[C@H](C)[C@@H](O)[C@]1(C)O` [CLARITHROMYCIN], for which the IC50 entry (in assay [1] (platelet); in assay [2]; at Neutrophil elastase; in assay [3]; in assay [4]; in assay [5]) was “Not Active” throughout. For the same compound, the IC50 result at Cannabinoid receptor 1 is “Not Active”. Besides, the Ki result in assay [4] and in assay [5] was “Not Active” in each case.
`CCC[C@@H]1C[C@@H](C(=O)N[C@@H]([C@H]2O[C@H](SC)[C@H](O)[C@@H](O)[C@H]2O)[C@H](C)Cl)N(C)C1` [CLINDAMYCIN]: the IC50 result (in assay [1] (platelet); in assay [2]; at Neutrophil elastase; in assay [3]; in assay [4]; in assay [5]) was “Not Active” in each case. Further, at Cannabinoid receptor 1, the IC50 result is recorded as “Not Active”. In addition, the Ki entry in assay [4] and in assay [5] was “Not Active” throughout.
